SMILES strings stand for the structures.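 Where inhibition never reached the appropriate level, the endpoint shown equals the highest concentration tested. Otherwise, values were interpolated linearly from a five-concentration, 48-hour dose response in 96-well plates. GI50 marks 50% less growth. TGI marks complete inhibition of growth.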

Test systems include SK-MEL-28 melanoma; M14 melanoma; HOP-62 NSCLC; EKVX NSCLC; SN12C renal; K-562 leukemia; DU-145 prostate; MCF7 breast.
What all share (test): NCI tumour cell line growth inhibition, 48 h

For the compound `COC(=O)[C@@]12C3=NO[C@]1(C(=O)OC)C(O[Si](C)(C)C(C)(C)C)[C@@H](OC(C)=O)[C@@H](OC(C)=O)[C@@H]2[C@@H](OCc1ccccc1)CC3` (some centres undefined), the TGI in the assay with SK-MEL-28 melanoma, with M14 melanoma, in the assay on HOP-62 NSCLC, in the assay with EKVX NSCLC, in the assay with SN12C renal and with K-562 leukemia was over 100 µM each time.

Turning to `CC(=O)OCC1OC(n2c(=S)n(-c3ccccc3)c(=O)c3cc(Br)ccc32)C(OC(C)=O)C1OC(C)=O` (centres undefined), the TGI with SK-MEL-28 melanoma, in the assay on M14 melanoma, in the assay on HOP-62 NSCLC, in the assay on EKVX NSCLC and in the assay with SN12C renal was over 100 µM throughout.

Take `CC(=O)C1C(=O)C(=O)N(CCN2C(=O)C(=O)C(C(C)=O)C2=O)C1=O` (centres undefined): the TGI with SK-MEL-28 melanoma, in the assay on M14 melanoma, with HOP-62 NSCLC, in the assay with EKVX NSCLC, with SN12C renal and with K-562 leukemia was over 100 µM each time.

With `O=C1C=CC(=O)c2c1nc(CBr)[nH]c2=O`, the TGI in the assay with SK-MEL-28 melanoma, with M14 melanoma, in the assay on HOP-62 NSCLC, in the assay with EKVX NSCLC, in the assay with SN12C renal and in the assay with DU-145 prostate was over 100 µM throughout. Further, the TGI in the assay on K-562 leukemia and in the assay with MCF7 breast was over 100 µM each time.

For the compound `N#Cc1ccc(C2SCc3nc4ccccc4n32)cc1` (centres undefined), the TGI with SK-MEL-28 melanoma, in the assay with M14 melanoma, in the assay with HOP-62 NSCLC, in the assay with EKVX NSCLC, in the assay with SN12C renal and with K-562 leukemia was over 100 µM throughout.

Regarding `CCN(CC)c1ccc(C2N3CCCCC3[C@@H]3c4[nH]c5ccccc5c4CCN23)cc1` (some centres undefined), the TGI is 58 µM with SK-MEL-28 melanoma; 64.8 µM in the assay on M14 melanoma; over 100 µM in the assay with HOP-62 NSCLC; over 100 µM in the assay with EKVX NSCLC; 51.6 µM in the assay on SN12C renal; 61.3 µM in the assay with K-562 leukemia.

As for `CC(=O)CC(=O)Nc1ccccc1C(F)(F)F`, the TGI in the assay with SK-MEL-28 melanoma, in the assay on M14 melanoma, in the assay on HOP-62 NSCLC, in the assay with EKVX NSCLC, in the assay on SN12C renal and with K-562 leukemia was over 100 µM in each case.

Consider `CCCCCCCCCCCCCS(=O)(=O)NCC(N)=O`, for which the TGI with SK-MEL-28 melanoma, with M14 melanoma, in the assay on HOP-62 NSCLC, in the assay with EKVX NSCLC and in the assay with SN12C renal was over 100 µM each time.

As to `CCN(CC)c1c(C)nnn1C1OC(COC(C)=O)C(OC(C)=O)C(OC(C)=O)C1OC(C)=O` (centres undefined), the TGI in the assay with SK-MEL-28 melanoma, in the assay on M14 melanoma, in the assay with HOP-62 NSCLC, in the assay with EKVX NSCLC, with SN12C renal and in the assay on K-562 leukemia was over 100 µM throughout.

Turning to `Cc1ccc(S(=O)(=O)C2CC2(Cl)Cl)cc1` (centres undefined), the TGI is over 100 µM with SK-MEL-28 melanoma; 29.2 µM in the assay on M14 melanoma; over 100 µM in the assay with EKVX NSCLC; 35.8 µM with SN12C renal; over 100 µM in the assay on K-562 leukemia.

Regarding `CCN(CC)C(=S)SS(C)(=O)=O`, the TGI in the assay with M14 melanoma was 32.1 µM; in the assay on HOP-62 NSCLC it was 40.2 µM; in the assay on EKVX NSCLC, 75.8 µM; in the assay on SN12C renal, 29.9 µM; in the assay on K-562 leukemia it was 47.8 µM.

Take `O=C(N/C(=C\c1ccc(/C=C(\NC(=O)c2ccccc2)c2nc3c(O)nc(S)nc3[nH]2)cc1)c1nc2c(O)nc(S)nc2[nH]1)c1ccccc1`: the TGI in the assay on SK-MEL-28 melanoma, in the assay with M14 melanoma, in the assay on HOP-62 NSCLC, in the assay on EKVX NSCLC, with SN12C renal and in the assay with K-562 leukemia was over 100 µM throughout.

As for `CC1=C2C=CC(=O)C[C@@]2(C)CCC1`, the TGI in the assay on SK-MEL-28 melanoma, in the assay with M14 melanoma, in the assay on HOP-62 NSCLC, with EKVX NSCLC, in the assay with SN12C renal and in the assay with K-562 leukemia was over 100 µM throughout.

For the compound `CC(=O)[CH-]C(=O)c1ccccc1.CC(=O)[CH-]C(=O)c1ccccc1.CC(=O)[CH-]C(=O)c1ccccc1.[Ga+3]`, the GI50 in the assay on SK-MEL-28 melanoma is 16.5 µM; in the assay with M14 melanoma, 15.5 µM; in the assay with HOP-62 NSCLC it was 29 µM; in the assay with EKVX NSCLC, 22.7 µM; with SN12C renal, 15 µM; in the assay on K-562 leukemia it was 16.9 µM. Moreover, the TGI in the assay on SK-MEL-28 melanoma came out at 30.9 µM; in the assay with M14 melanoma, 30.1 µM; in the assay on HOP-62 NSCLC, 60.9 µM; with EKVX NSCLC, 57.6 µM; in the assay with SN12C renal, 33.2 µM; in the assay on K-562 leukemia, 51.5 µM.

Regarding `CN1CCN(c2nc(N)c(Br)c(Cl)n2)CC1`, the TGI in the assay on SK-MEL-28 melanoma, in the assay with M14 melanoma, with HOP-62 NSCLC, with EKVX NSCLC, with SN12C renal and with K-562 leukemia was over 100 µM throughout.

(Values after PubChem BioAssay (NCI).)
